Experimental data from patent US20260285875A1, “INHIBITORS OF PARG” (858 Therapeutics, Inc., priority 2023, published 2026).
pIC50: −log10 of the molar value.

Experiments:
sensitive cells = conditions: S-phase dependent; cited from earlier work
cellular PARG = target: T1, cellular PARG (Homo sapiens, UniProt Q86W56); assay: Nuclear PAR accumulation assay (immunofluorescence high-content imaging, MMS-treated HeLa cells); type: cell-based; conditions: 1 hour compound then MMS 50 μg/mL for an additional hour
T1 construct: endogenous in cells; host or cells: HeLa
In short: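 HeLa cells pretreated with compound for 1 h at 37° C, then given 50 μg/mL MMS for another hour. After methanol fixation, PAR was immunostained with DAPI nuclear counterstain; per-nucleus intensity and percent PAR-positive cells were imaged at 20× (≥1,000 cells/well). IC50 from four-parameter logistic fit.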

T1 sequence (Q86W56 whole entry): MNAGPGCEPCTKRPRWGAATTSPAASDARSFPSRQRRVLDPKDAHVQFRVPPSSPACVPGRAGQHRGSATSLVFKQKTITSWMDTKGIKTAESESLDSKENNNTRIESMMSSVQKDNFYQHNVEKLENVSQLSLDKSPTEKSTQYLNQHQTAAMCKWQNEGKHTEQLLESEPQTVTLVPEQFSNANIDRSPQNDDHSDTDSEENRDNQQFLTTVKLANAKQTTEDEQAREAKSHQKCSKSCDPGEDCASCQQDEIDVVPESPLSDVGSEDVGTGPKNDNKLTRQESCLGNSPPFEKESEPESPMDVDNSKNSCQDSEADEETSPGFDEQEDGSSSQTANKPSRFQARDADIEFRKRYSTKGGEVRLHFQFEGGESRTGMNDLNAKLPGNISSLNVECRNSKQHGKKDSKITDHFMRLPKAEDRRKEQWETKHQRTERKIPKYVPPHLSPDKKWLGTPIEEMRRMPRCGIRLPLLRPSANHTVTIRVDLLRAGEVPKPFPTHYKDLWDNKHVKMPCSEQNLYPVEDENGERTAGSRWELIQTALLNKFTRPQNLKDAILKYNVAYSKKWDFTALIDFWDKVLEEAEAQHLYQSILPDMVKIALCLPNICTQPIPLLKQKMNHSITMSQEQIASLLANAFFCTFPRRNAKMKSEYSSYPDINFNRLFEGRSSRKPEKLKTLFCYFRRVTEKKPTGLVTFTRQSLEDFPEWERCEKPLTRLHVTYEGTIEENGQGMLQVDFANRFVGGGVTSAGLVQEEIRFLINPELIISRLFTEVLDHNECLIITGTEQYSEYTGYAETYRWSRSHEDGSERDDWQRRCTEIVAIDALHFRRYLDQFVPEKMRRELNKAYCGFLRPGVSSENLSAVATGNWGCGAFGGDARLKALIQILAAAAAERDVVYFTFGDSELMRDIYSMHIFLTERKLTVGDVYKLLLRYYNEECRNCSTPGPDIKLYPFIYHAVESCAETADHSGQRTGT

Row | pIC50 (cellular PARG) | Compound | accumulation of nuclear RPA protein and induction of pan-nuclear QH2AX expression (sensitive cells)
1 |  | PDD00017273 | S-phase dependent accumulation of nuclear RPA protein and induction of pan-nuclear QH2AX expression
2 | > 7.00 | [2H]C([2H])(c1cnn(C)c1)N1C(=O)c2cc(S(=O)(=O)NC3(C)CC3)c(F)cc2N2CC(C)(C)N=C21 [Example 274, 8-fluoro-2,2-dimethyl-4-((1-methyl-1H-pyrazol-4-yl)methyl-d2)-N-(1-methylcyclopropyl)-5-oxo-1,2,4,5-tetrahydroimidazo[1,2-a]quinazoline-7-sulfonamide] | 
3 | > 7.00 | Cn1cc(CN2C(=O)c3cc(S(=O)(=O)NC4(C)CC4)ccc3N3C2=NC[C@H]3C#CCN2CCCC2)cn1 [Example 87, (R)-4-((1-methyl-1H-pyrazol-4-yl)methyl)-N-(1-methylcyclopropyl)-5-oxo-1-(3-(pyrrolidin-1-yl)prop-1-yn-1-yl)-1,2,4,5-tetrahydroimidazo[1,2-a]quinazoline-7-sulfonamide] | 
